We go through 16 compounds from US5395824A, “Dipeptide derivative and prophylactic and therapeutic agent for bone diseases containing the same” (Suntory Limited, priority 1991, dated 1995).

Each structure is given as a SMILES string.

The subject of test [1] is PTHrp(1-34)-Induced Hypercalcemia in Rats. As to the kind of experiment: Effect on PTHrp(1-34)-induced hypercalcemia in rats (p.o.). The class given is in vivo. Particulars: male Wistar rats, 40 mg/kg p.o.; PTHrp(1-34) 5 nmole/kg i.v. four hours later; blood sample 1 hour after PTHrp; n = 5; PTHrp-only control 10.84 ± 0.11. The protocol: Some of the compounds shown in Table 1 were orally administered to 5-week-old male Wistar rats weighing from […] to 110 g (5 animals per group) at a dose of 40 mg/kg body weight. Four hours later, 5 nmole/kg of PTHrp(1-34) was intravenously injected into the animals. One hour after the administration of PTHrp(1-34)sequence ID No. 1, a blood sample was collected from each rat, and the blood calcium concentration was determined by the octocresolphthalein complexone method.

Test [2] shares this test system. As to the kind of experiment: Effect on PTHrp(1-34)-induced hypercalcemia in rats (i.p.). Format: in vivo. Particulars: male Wistar rats, 40 mg/kg i.p.; PTHrp(1-34) 5 nmole/kg i.v. two hours later; blood sample 1 hour after PTHrp; n = 5; PTHrp-only control 10.79 ± 0.13. The protocol: Some of the compounds shown in Table 1 were intraperitoneally administered to 5-week-old male Wistar rats each weighing 90 to 110 g (5 animals per group) at a dose of 40 mg/kg body weight. Two hours later, 5 nmole/kg of PTHrp(1-34) was intravenously injected. One hour after the administration of PTHrp(1-34), a blood sample was collected from each animal, and the blood calcium concentration was determined according to the same method as in Test Example 1.

`CCCCC(NC(=O)[C@H](CC(C)C)NC(=O)CC)C(OC)OC` (stereo partly drawn) [Example 25, N-Propionyl-L-leucine-(1-dimethoxymethyl)pentylamide]: the “Ca Conc. ± S.E. (average blood calcium concentration)” value in test [1] is 9.88 ± 0.09 mg/dL.
For the compound `CCCCC(NC(=O)[C@H](CC(C)C)NC(C)=O)C(OCC)OCC` (stereo partly drawn) [Example 22, N-Acetyl-L-leucine-(1-diethoxymethyl)pentylamide], the “Ca Conc. ± S.E. (average blood calcium concentration)” value in test [1] was 10.05 ± 0.13 mg/dL; in test [2] it was 9.67 ± 0.18 mg/dL.
For `CCCCC(NC(=O)[C@H](CC(C)C)NC(=O)OCc1ccccc1)C(OC)OC` (stereo partly drawn) [Example 7, N-Benzyloxycarbonyl-L-leucine-(1-dimethoxymethyl)pentylamide] the same measures were 10.36 ± 0.11 mg/dL and 10.29 ± 0.14 mg/dL.
Take `CCCCC(NC(=O)[C@H](CC(C)C)NC(=O)OCc1ccccc1)C1SCCS1` (stereo partly drawn) [Example 13, N-Benzyloxycarbonyl-L-leucine-[1-(1,3-dithiolan-2-yl)]pentylamide]: the “Ca Conc. ± S.E. (average blood calcium concentration)” value in test [2] was 10.23 ± 0.05 mg/dL.
For the compound `CCCCC(NC(=O)[C@H](CC(C)C)NC(=O)CCl)C(OC)OC` (stereo partly drawn) [Example 24, N-Chloroacetyl-L-leucine-(1-dimethoxymethyl)pentylamide], the “Ca Conc. ± S.E. (average blood calcium concentration)” value in test [1] was 10.12 ± 0.09 mg/dL.
`CCCCC(NC(=O)[C@H](CC(C)C)NC(=O)OCc1ccccc1)C(=O)C(=O)OCC` (stereo partly drawn) [Example 1, N-Benzyloxycarbonyl-L-leueine-(1-ethoxalyl)pentylamide]: the “Ca Conc. ± S.E. (average blood calcium concentration)” value in test [2] is 10.33 ± 0.12 mg/dL.
Consider `CCCCC(NC(=O)[C@H](CC(C)C)NC(=O)OCc1ccccc1)C1NCCS1` (stereo partly drawn) [Example 15, N-Benzyloxycarbonyl-L-leucine-[1-(thiazolidine-2-yl)]pentylamide], for which the “Ca Conc. ± S.E. (average blood calcium concentration)” value in test [1] was 9.98 ± 0.13 mg/dL; in test [2] it was 10.13 ± 0.21 mg/dL.
Regarding `CCCCC(NC(=O)[C@H](CC(C)C)NC(C)=O)C1NCCS1` (stereo partly drawn) [Example 21, N-Acetyl-L-leucine-[1-(thiazolidine-2-yl)]pentylamide], the “Ca Conc. ± S.E. (average blood calcium concentration)” value in test [1] was 9.98 ± 0.10 mg/dL; in test [2], 9.96 ± 0.07 mg/dL.
Regarding `CCCCC(NC(=O)[C@H](CC(C)C)NC(=O)C(F)(F)F)C(OC)OC` (stereo partly drawn) [Example 27, N-Trifluoroacetyl-L-leucine-(1-dimethoxymethyl)pentylamide], the “Ca Conc. ± S.E. (average blood calcium concentration)” value in test [1] is 9.91 ± 0.13 mg/dL.
Same read-out and setting: the same measure for `CCCCC(NC(=O)[C@H](CC(C)C)NC(=O)C(C)C)C(OC)OC` (stereo partly drawn) [Example 23, N-Isobutyryl-L-leucine-(1-dimethoxymethyl)pentylamide]: 9.83 ± 0.13 mg/dL; for `CCCCC(NC(=O)[C@H](CC(C)C)NC(=O)OCc1ccccc1)C1OCCO1` (stereo partly shown) [Example 9]: 10.41 ± 0.08 mg/dL.
On to `CCCCC(NC(=O)[C@H](CC(C)C)NC(=O)CCC)C(OC)OC` (stereo partly drawn) [Example 26, N-Butyryl-L-leucine-(1-dimethoxymethyl)pentylamide], for which the “Ca Conc. ± S.E. (average blood calcium concentration)” value in test [1] was 9.85 ± 0.08 mg/dL.
As to `CCCCC(NC(=O)[C@H](CC(C)C)NC(C)=O)C(OC)OC` (stereo partly drawn) [Example 16, N-Acetyl-L-leucine-(1-dimethoxymethyl)pentylamide], the “Ca Conc. ± S.E. (average blood calcium concentration)” value in test [1] was 9.91 ± 0.13 mg/dL; in test [2], 9.95 ± 0.14 mg/dL.
For `CCCCC(NC(=O)[C@H](CC(C)C)NC(C)=O)C1OCCO1` (stereo partly drawn) [Example 17, N-Acetyl-L-leucine-[1-(1,3-dioxolan-2-yl)]pentylamide] the same measures were 9.97 ± 0.17 mg/dL and 10.16 ± 0.05 mg/dL.
With `CC(C)CC(C=O)NC(=O)[C@H](CC(C)C)NC(=O)OCc1ccccc1` (stereo partly drawn) [Example 33, N-Benzyloxycarbonyl-L-leucine-(1-formyl-3-methyl)butylamide], the “Ca Conc. ± S.E. (average blood calcium concentration)” value in test [1] was 10.26 ± 0.13 mg/dL.
As for `CCCCC(NC(=O)[C@H](CC(C)C)NC(=O)OCc1ccccc1)C(OC(C)=O)OC(C)=O` (stereo partly drawn) [Example 12, N-Benzyloxycarbonyl-L-leucine-(1-diacetoxymethyl)pentylamide], the “Ca Conc. ± S.E. (average blood calcium concentration)” value in test [2] was 10.27 ± 0.08 mg/dL.
